In the supplement of paper PMC13380429:

Legend:
Settings in all cases: 72 h
Caco-2 [1] = test: cell viability relative to DMSO; higher = less toxic
U2OS [2] = test: as above
HepG2 [3] = test: as above
Vero E6 [4] = test: as above
Calu-3 [5] = test: as above
Caco-2 [6] = test: drug sensitivity score (DSS) for viability; higher = more toxic; extreme values may be limits of the assay
U2OS [7] = test: as above
HepG2 [8] = test: as above
Vero E6 [9] = test: as above
Calu-3 [10] = test: as above
Caco-2 [11] = test: relative viability EC50 (midpoint between 100% and the lowest measured viability); higher = less toxic
U2OS [12] = test: as above
Vero E6 [13] = test: as above
Calu-3 [14] = test: as above
HepG2 [15] = test: as above

Row | SMILES | cell viability (Caco-2 [1]; 1 nM) [%] | cell viability (Caco-2 [1]; 10 nM) [%] | cell viability (Caco-2 [1]; 100 nM) [%] | cell viability (Caco-2 [1]; 1000 nM) [%] | cell viability (Caco-2 [1]; 10000 nM) [%] | cell viability (U2OS [2]; 1 nM) [%] | cell viability (U2OS [2]; 10 nM) [%] | cell viability (U2OS [2]; 100 nM) [%] | cell viability (U2OS [2]; 1000 nM) [%] | cell viability (U2OS [2]; 10000 nM) [%] | cell viability (HepG2 [3]; 1 nM) [%] | cell viability (HepG2 [3]; 10 nM) [%] | cell viability (HepG2 [3]; 100 nM) [%] | cell viability (HepG2 [3]; 1000 nM) [%] | cell viability (HepG2 [3]; 10000 nM) [%] | cell viability (Vero E6 [4]; 1 nM) [%] | cell viability (Vero E6 [4]; 10 nM) [%] | cell viability (Vero E6 [4]; 100 nM) [%] | cell viability (Vero E6 [4]; 1000 nM) [%] | cell viability (Vero E6 [4]; 10000 nM) [%] | cell viability (Calu-3 [5]; 1 nM) [%] | cell viability (Calu-3 [5]; 10 nM) [%] | cell viability (Calu-3 [5]; 100 nM) [%] | cell viability (Calu-3 [5]; 1000 nM) [%] | cell viability (Calu-3 [5]; 10000 nM) [%] | drug sensitivity score (Caco-2 [6]) | drug sensitivity score (U2OS [7]) | drug sensitivity score (HepG2 [8]) | drug sensitivity score (Vero E6 [9]) | drug sensitivity score (Calu-3 [10]) | relative viability EC50 (Caco-2 [11]) [µM] | relative viability EC50 (U2OS [12]) [µM] | relative viability EC50 (Vero E6 [13]) [µM] | relative viability EC50 (Calu-3 [14]) [µM] | relative viability EC50 (HepG2 [15]) [µM]
1 | C[C@@H](N[C@H]1CCCC[C@@H]1NC(=O)c1ccc(Cl)cc1)c1cccc2ccccc12 [Calhex-231] | 104 | 91.7 | 91.6 | 102 | 92.9 | 98.7 | 96.2 | 99.8 | 94.1 | 87.3 | 97.9 | 101 | 95.7 | 97.9 | 68.6 | 103 | 104 | 102 | 98.9 | 93.4 | 91.9 | 108 | 95.9 | 109 | 85.8 | 0 | 0.3 | 1.7 | 0 | 0.1 | > 10 | > 10 | > 10 | > 10 | –
2 | CCCCCCCC/C=C/CCCCCCCC(=O)OC[C@H]1O[C@@H](n2ccc(N)nc2=O)C(F)(F)[C@@H]1O [gemcitabine-elaidate] | 95.3 | 96.1 | 79.7 | 68.5 | 67.6 | 105 | 110 | 70.2 | 77 | 70.7 | 104 | 57.6 | 36.5 | 35.8 | 38.5 | 105 | 104 | 55.6 | 61.5 | 58.3 | 106 | 90.1 | 69.1 | 57.8 | 35.2 | 7.6 | 8.2 | 25.2 | 13.4 | 12.3 | – | – | – | 0.179 | 0.0077
3 | CC(C)(CO)[C@@H](O)C(=O)NCCC(=O)O [pantothenic-acid] | 101 | 97.3 | 96.7 | 94.8 | 66.4 | 95.9 | 91.4 | 101 | 92.3 | 97.4 | – | – | – | – | – | 100 | 103 | 95 | 98.5 | 94 | 99.6 | 97.7 | 106 | 87.8 | 103 | 2.4 | 0 | – | 0 | 0 | – | > 10 | > 10 | > 10 | –
4 | c1ccc(Cn2c(N3CCNCC3)nc3ccccc32)cc1 [lerisetron] | 100 | 98.6 | 104 | 98.9 | 96.5 | 99.2 | 95.4 | 105 | 98.1 | 99.9 | – | – | – | – | – | 103 | 100 | 99.4 | 98.7 | 96.6 | 97.6 | 95.8 | 100 | 98 | 96.3 | 0 | 0 | – | 0 | 0 | > 10 | > 10 | > 10 | > 10 | –
5 | Cc1ccc(-c2csc(NC(=O)c3ccccc3)n2)c(C)c1 [INH1] | 97.2 | 104 | 96.1 | 91.5 | 85.8 | 94.7 | 101 | 95.3 | 96.3 | 96.6 | 102 | 104 | 98.8 | 104 | 58.7 | 102 | 96.8 | 98.4 | 97.5 | 91.1 | 96.9 | 102 | 101 | 107 | 98.3 | 0.4 | 0 | 1.8 | 0 | 0 | > 10 | > 10 | > 10 | > 10 | –
6 | C[N+](C)(C)CCOP(=O)(O)OC[C@H](O)CO [choline-alfoscerate] | 106 | 101 | 100 | 100 | 102 | 105 | 102 | 101 | 99.4 | 98 | – | – | – | – | – | – | – | – | – | – | 99.9 | 98 | 91.2 | 96.3 | 102 | 0 | 0 | – | – | 0 | > 10 | > 10 | – | > 10 | –
7 | COc1ccc2[nH]c([S+]([O-])Cc3ncc(C)c(OC)c3C)nc2n1 (configuration not stated) [tenatoprazole] | – | – | – | – | – | – | – | – | – | – | 101 | 113 | 104 | 106 | 97.7 | – | – | – | – | – | 109 | 114 | 103 | 96.6 | 105 | – | – | 0 | – | 0 | – | – | – | > 10 | > 10
8 | OCCN1CCN(CC/C=C2/c3ccccc3Sc3ccc(Cl)cc32)CC1 [zuclopenthixol] | 105 | 80.8 | 92.8 | 94.8 | 82 | 99.6 | 96 | 99.6 | 97.1 | 79.2 | 93.4 | 101 | 89.9 | 98.6 | 66 | 95.2 | 95 | 93 | 93.7 | 79.2 | 95.1 | 93.9 | 98.9 | 91.9 | 47.9 | 0.8 | 1.1 | 1.8 | 0.8 | 4.1 | > 10 | > 10 | > 10 | 1.95 | –
9 | O=C(O[C@@H]1Cc2c(O)cc(O)cc2O[C@@H]1c1ccc(O)c(O)c1)c1cc(O)c(O)c(O)c1 [epicatechin-gallate-(-)] | 99.7 | 93.6 | 87.7 | 92 | 100 | 97.7 | 97.5 | 103 | 97.2 | 101 | – | – | – | – | – | 105 | 102 | 99 | 96.1 | 99 | 107 | 102 | 93.2 | 91 | 104 | 0 | 0 | – | 0 | 0 | > 10 | > 10 | > 10 | > 10 | –
10 | COC(=O)Nc1nc2cc(Sc3ccccc3)ccc2[nH]1 [fenbendazole] | 94.2 | 95.8 | 104 | 81.3 | 66.2 | 103 | 97.8 | 101 | 83.5 | 61.7 | 103 | 105 | 93.3 | 79.1 | 41 | 105 | 108 | 104 | 90.2 | 46.7 | 98.1 | 86.1 | 97.7 | 83.6 | 86.4 | 3.8 | 4.1 | 5.6 | 4.5 | 1 | – | – | 1.81 | > 10 | 1.39
11 | CC(=O)O[C@H]1CC[C@@]2(C)C(=CC[C@@H]3[C@@H]2CC[C@]2(C)C(c4cccnc4)=CC[C@@H]32)C1 [abiraterone-acetate] | 97.1 | 99.8 | 95.5 | 92.8 | 92.6 | 101 | 100 | 99.5 | 95.8 | 102 | – | – | – | – | – | – | – | – | – | – | 98.3 | 102 | 96.6 | 87.8 | 107 | 0 | 0 | – | – | 0 | > 10 | > 10 | – | > 10 | –
12 | CC(=O)NC1=NN(C(C)=O)[C@](C)(c2ccccc2)S1 [K-858] | 106 | 102 | 91.3 | 102 | 71 | 97 | 96.5 | 97.6 | 98.3 | 63.9 | 98.8 | 101 | 98.7 | 106 | 39.2 | 103 | 103 | 99 | 96.2 | 42.2 | 108 | 93 | 96.3 | 101 | 91.5 | 1.1 | 2 | 2.9 | 3.7 | 0 | – | – | 2.63 | > 10 | 3.65
13 | CCCc1nc(C(C)(C)O)c(C(=O)OCc2oc(=O)oc2C)n1Cc1ccc(-c2ccccc2-c2nnn[nH]2)cc1 [olmesartan-medoxomil] | 92.8 | 96 | 97.5 | 91.4 | 99.3 | 95.3 | 93.7 | 99.6 | 96.3 | 99.2 | – | – | – | – | – | 97.6 | 99.2 | 94.6 | 89 | 115 | 91.5 | 92.9 | 100 | 94.3 | 104 | 0 | 0 | – | 0 | 0 | > 10 | > 10 | > 10 | > 10 | –
